Measurements as given in patent publication US8759535B2, “Substituted fused imidazole derivatives, pharmaceutical compositions, and methods of use thereof” (High Point Pharmaceuticals, LLC, priority 2010, dated 2014).
Structures can show the parent of a compound that is named as a salt.

Test system: HMOX1
Experiment: HMOX1 Protein Assay (immunostaining of HO-1 in NHLF cells, GE InCell 1000)
Assay type: cell-based
Conditions: Homo sapiens, fold change above DMSO treated cells, 3 μM compound (asterisk), 16 h
Method in brief: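 NHLF cells seeded overnight in FGM-2, then exposed to compound or DMSO vehicle for 16 h, fixed, and immunostained for HO-1 with Hoechst nuclear counterstain; imaged on InCell 1000. Values are fold change over DMSO-treated cells, generally at 5 μM (0.8% DMSO), with asterisked entries at 3 μM.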

Which fold induction at 3 µM does the source give for CN1CCN(C(=O)CCNC(=O)c2ccc3c(c2)nc(Nc2nc4ccc(C(F)(F)F)cc4s2)n3C)CC1 [Example 375, 1-Methyl-2-(6-trifluoromethyl-benzothiazol-2-ylamino)-1H-benzoimidazole-5-carboxylic acid [3-(4-methyl-piperazin-1-yl)-3-oxo-propyl]-amide] here?
The fold induction at 3 µM was 19.4.

For C[C@H](NC(=O)c1ccc2c(c1)nc(Nc1nc3ccc(Cl)cc3s1)n2C)C(=O)N(C)C [Example 462, 2-(6-Chloro-benzothiazol-2-ylamino)-1-methyl-1H-benzoimidazole-5-carboxylic acid ((S)-1-dimethylcarbamoyl-ethyl)-amide], which fold induction at 3 µM is on record?
Its fold induction at 3 µM is 20.

For Cn1c(Nc2nc3ccc(Cl)cc3s2)nc2cc(C(=O)NCCCN)ccc21 [Example 345, 2-(6-Chloro-benzothiazol-2-ylamino)-1-methyl-1H-benzoimidazole-5-carboxylic acid (3-amino-propyl)-amide hydrochloride], which fold induction at 3 µM is on record?
Its fold induction at 3 µM is 26.4.

Cn1c(Nc2nc3ccc(C(F)(F)F)cc3s2)nc2cc(C(=O)NCCCCCO)ccc21 [Example 228, 1-Methyl-2-(6-trifluoromethyl-benzothiazol-2-ylamino)-1H-benzoimidazole-5-carboxylic acid (5-hydroxy-pentyl)-amide] was tested. Which fold induction at 3 µM did it give?
Its fold induction at 3 µM is 26.

How did the fold induction at 3 µM turn out when C[C@H](CO)OCCNC(=O)c1ccc2c(c1)nc(Nc1nc3ccc(OC(F)(F)F)cc3s1)n2C [Example 242, 1-Methyl-2-(6-trifluoromethoxy-benzothiazol-2-ylamino)-1H-benzoimidazole-5-carboxylic acid [2-((R)-2-hydroxy-1-methyl-ethoxy)-ethyl]-amide] was run?
The fold induction at 3 µM was 28.1.

CN(C)CCCNC(=O)c1ccc2c(c1)nc(Nc1nc3ccc(OC(F)(F)F)cc3s1)n2C [Example 348, 1-Methyl-2-(6-trifluoromethoxy-benzothiazol-2-ylamino)-1H-benzoimidazole-5-carboxylic acid (3-dimethylamino-propyl)-amide] was tested. Which fold induction at 3 µM did it give?
Its fold induction at 3 µM is 22.

Cn1c(Nc2nc3ccc(Cl)cc3s2)nc2cc(C(=O)NCC(=O)N3CCCC3)ccc21 [Example 397, 2-(6-Chloro-benzothiazol-2-ylamino)-1-methyl-1H-benzoimidazole-5-carboxylic acid (2-oxo-2-pyrrolidin-1-yl-ethyl)-amide] was tested. Which fold induction at 3 µM did it give?
The fold induction at 3 µM was 25.

For CCN(CC)CCCNC(=O)c1ccc2c(c1)nc(Nc1nc3ccc(C(F)(F)F)cc3s1)n2C [Example 353, 1-Methyl-2-(6-trifluoromethyl-benzothiazol-2-ylamino)-1H-benzoimidazole-5-carboxylic acid (3-diethylamino-propyl)-amide], which fold induction at 3 µM is on record?
Its fold induction at 3 µM is 23.

Same assay, conditions: Homo sapiens, fold change above DMSO treated cells, 5 μM compound, 16 h

CNC1CCN(C(=O)CNC(=O)c2ccc3c(c2)nc(Nc2nc4ccc(OC(F)(F)F)cc4s2)n3C)CC1 [Example 453, 1-Methyl-2-(6-trifluoromethoxy-benzothiazol-2-ylamino)-1H-benzoimidazole-5-carboxylic acid [2-(4-methylamino-piperidin-1-yl)-2-oxo-ethyl]-amide hydrochloride] was tested. Which fold induction at 5 µM did it give?
The fold induction at 5 µM was 81.1.

With CN1CCN(C(=O)CCCNC(=O)c2ccc3c(c2)nc(Nc2nc4ccc(Cl)cc4s2)n3C)CC1 [Example 377, 2-(6-Chloro-benzothiazol-2-ylamino)-1-methyl-1H-benzoimidazole-5-carboxylic acid [4-(4-methyl-piperazin-1-yl)-4-oxo-butyl]-amide] as the molecule, how does the fold induction at 5 µM read?
Its fold induction at 5 µM is 20.3.

For Cn1c(Nc2nc3ccc(Cl)cc3s2)nc2cc(C(=O)NCC(=O)N3CCSCC3)ccc21 [Example 423, 2-(6-Chloro-benzothiazol-2-ylamino)-1-methyl-1H-benzoimidazole-5-carboxylic acid (2-oxo-2-thiomorpholin-4-yl-ethyl)-amide], which fold induction at 5 µM is on record?
The fold induction at 5 µM was 30.2.

How did the fold induction at 5 µM turn out when CCn1c(Nc2nc3ccc(Cl)cc3s2)nc2cc(C(=O)NCC(C)(C)OC)ccc21 [Example 178, 2-(6-Chloro-benzothiazol-2-ylamino)-1-ethyl-1H-benzoimidazole-5-carboxylic acid (2-methoxy-2-methyl-propyl)-amide] was run?
The fold induction at 5 µM was 25.7.

Which fold induction at 5 µM does the source give for COC(=O)C(C)(C)NC(=O)c1ccc2c(c1)nc(Nc1nc3ccc(OC(F)(F)F)cc3s1)n2C [Example 145, 2-Methyl-2-{[1-methyl-2-(6-trifluoromethoxy-benzothiazol-2-ylamino)-1H-benzimidazole-5-carbonyl]-amino}-propionic acid methyl ester] here?
The fold induction at 5 µM was 7.1.

How did the fold induction at 5 µM turn out when CCNC(=O)c1ccc2c(c1)nc(Nc1nc3ccc(OC(F)(F)F)cc3s1)n2CC(C)C [Example 165, 1-Isobutyl-2-(6-trifluoromethoxy-benzothiazol-2-ylamino)-1H-benzoimidazole-5-carboxylic acid ethylamide] was run?
Its fold induction at 5 µM is 17.9.

How did the fold induction at 5 µM turn out when Cn1c(Nc2nc3ccc(OC(F)(F)F)cc3s2)nc2cc(C(=O)NCCOCCC#N)ccc21 [Example 265, 1-Methyl-2-(6-trifluoromethoxy-benzothiazol-2-ylamino)-1H-benzoimidazole-5-carboxylic acid [2-(2-cyano-ethoxy)-ethyl]-amide] was run?
Its fold induction at 5 µM is 55.

Cn1c(Nc2nc3ccc(OC(F)(F)F)cc3s2)nc2cc(C(=O)NC3CCS(=O)(=O)C3)ccc21 (stereo not drawn) [Example 121, 1-Methyl-2-(6-trifluoromethoxy-benzothiazol-2-ylamino)-1H-benzimidazole-5-carboxylic acid (1,1-dioxo-tetrahydro-1λ^6-thiophen-3-yl)-amide] was tested. Which fold induction at 5 µM did it give?
Its fold induction at 5 µM is 29.6.

With Cn1c(Nc2nc3ccc(OC(F)(F)F)cc3s2)nc2cc(C(=O)NCCc3ccc(O)cc3)ccc21 [Example 251, 1-Methyl-2-(6-trifluoromethoxy-benzothiazol-2-ylamino)-1H-benzoimidazole-5-carboxylic acid [2-(4-hydroxy-phenyl)-ethyl]-amide] as the molecule, how does the fold induction at 5 µM read?
Its fold induction at 5 µM is 29.6.

CSCCNC(=O)c1ccc2c(c1)nc(Nc1nc3ccc(S(C)(=O)=O)cc3s1)n2C [Example 130, 2-(6-Methanesulfonyl-benzothiazol-2-ylamino)-1-methyl-1H-benzimidazole-5-carboxylic acid (2-methylsulfanyl-ethyl)-amide] was tested. Which fold induction at 5 µM did it give?
The fold induction at 5 µM was 5.3.

Which fold induction at 5 µM does the source give for Cn1c(Nc2nc3ccc(Cl)cc3s2)nc2cc(C(=O)NC3CCN(CCC(=O)O)C3)ccc21 (stereo not drawn) [Example 299, 3-(3-{[2-(6-Chloro-benzothiazol-2-ylamino)-1-methyl-1H-benzoimidazole-5-carbonyl]-amino}-pyrrolidin-1-yl)-propionic acid] here?
The fold induction at 5 µM was 16.7.

For COCCn1c(Nc2nc3ccc(OC(F)(F)F)cc3s2)nc2cc(C(=O)NCC(=O)N3CCN(C)CC3)ccc21 [Example 189, 1-(2-Methoxy-ethyl)-2-(6-trifluoromethoxy-benzothiazol-2-ylamino)-1H-benzoimidazole-5-carboxylic acid [2-(4-methyl-piperazin-1-yl)-2-oxo-ethyl]-amide], which fold induction at 5 µM is on record?
The fold induction at 5 µM was 24.6.

With Cn1c(Nc2nc3ccc(OC(F)(F)F)cc3s2)nc2cc(C(=O)NCCCC(C)(C)CO)ccc21 [Example 229, 1-Methyl-2-(6-trifluoromethoxy-benzothiazol-2-ylamino)-1H-benzoimidazole-5-carboxylic acid (5-hydroxy-4,4-dimethyl-pentyl)-amide] as the molecule, how does the fold induction at 5 µM read?
The fold induction at 5 µM was 14.4.

With Cn1c(Nc2nc3ccc(OC(F)(F)F)cc3s2)nc2cc(C(=O)NCCOCCO)ccc21 [Example 46, 1-Methyl-2-(6-trifluoromethoxy-benzothiazol-2-ylamino)-1H-benzoimidazole-5-carboxylic acid [2-(2-hydroxy-ethoxy)-ethyl]-amide] as the molecule, how does the fold induction at 5 µM read?
The fold induction at 5 µM was 17.9.

With CNC(=O)c1ccc2c(c1)nc(Nc1nc3cc(OC(F)(F)F)ccc3s1)n2C [Example 115, 1-Methyl-2-(5-trifluoromethoxy-benzothiazol-2-ylamino)-1H-benzimidazole-5-carboxylic acid methylamide] as the molecule, how does the fold induction at 5 µM read?
The fold induction at 5 µM was 1.5.

CCOCCNC(=O)c1cc2nc(Nc3nc4ccc(OC(F)(F)F)cc4s3)n(C)c2cc1F [Example 57, 6-Fluoro-1-methyl-2-(6-trifluoromethoxy-benzothiazol-2-ylamino)-1H-benzoimidazole-5-carboxylic acid (2-ethoxy-ethyl)-amide] was tested. Which fold induction at 5 µM did it give?
Its fold induction at 5 µM is 32.

With Cn1c(Nc2nc3ccc(OC(F)(F)F)cc3s2)nc2cc(C(=O)O)ccc21 [Example 3, 1-Methyl-2-(6-trifluoromethoxy-benzothiazol-2-ylamino)-1H-benzoimidazole-5-carboxylic acid] as the molecule, how does the fold induction at 5 µM read?
Its fold induction at 5 µM is 12.5.

With COC(=O)c1ccc2c(c1)nc(Nc1nc3cc(OC(F)(F)F)ccc3s1)n2C [Example 99, 1-Methyl-2-(5-trifluoromethoxy-benzothiazol-2-ylamino)-1H-benzoimidazole-5-carboxylic acid methyl ester] as the molecule, how does the fold induction at 5 µM read?
Its fold induction at 5 µM is 8.5.

Which fold induction at 5 µM does the source give for COCCn1c(Nc2nc3ccc(OC(F)(F)F)cc3s2)nc2cc(C(=O)NCC(=O)N(C)C)ccc21 [Example 188, 1-(2-Methoxy-ethyl)-2-(6-trifluoromethoxy-benzothiazol-2-ylamino)-1H-benzoimidazole-5-carboxylic acid dimethylcarbamoylmethyl-amide] here?
Its fold induction at 5 µM is 18.3.

How did the fold induction at 5 µM turn out when Cn1c(Nc2nc3ccc(OC(F)(F)F)cc3s2)nc2cc(C(=O)NCCN3CCOCC3)cnc21 [Example 77, 3-Methyl-2-(6-trifluoromethoxy-benzothiazol-2-ylamino)-3H-imidazo[4,5-b]pyridine-6-carboxylic acid (2-morpholin-4-yl-ethyl)-amide] was run?
Its fold induction at 5 µM is 31.4.

How did the fold induction at 5 µM turn out when COCCCNC(=O)c1ccc2c(c1)nc(Nc1nc3ccc(OC(F)(F)F)cc3s1)n2C [Example 19, 1-Methyl-2-(6-trifluoromethoxy-benzothiazol-2-ylamino)-1H-benzoimidazole-5-carboxylic acid (3-methoxy-propyl)-amide] was run?
Its fold induction at 5 µM is 21.1.

With COCCNC(=O)c1ccc2c(c1)nc(Nc1nc3ccc(F)cc3s1)n2C [Example 125, 2-(6-Fluoro-benzothiazol-2-ylamino)-1-methyl-1H-benzimidazole-5-carboxylic acid (2-methoxy-ethyl)-amide] as the molecule, how does the fold induction at 5 µM read?
Its fold induction at 5 µM is 25.9.
